Experimental data reported in PMC2639639, “Identification of Three Classes of Heteroaromatic Compounds with Activity against Intracellular Trypanosoma cruzi by Chemical Library Screening” (PLoS Neglected Tropical Diseases, 2009).
Entries after “also recorded” stand apart in the source; their conditions may differ. Where two headings read alike, the source gives them in different places.

Assays:
Leishmania = system: Leishmania; set-up: method as in PMID 15891135; settings: read-out: IC50 (Leishmania positive control); cited from earlier work
[1] = system: T. cruzi (Tulahuen strain) expressing β-galactosidase; assay: T. cruzi growth inhibition assay (β-gal activity, infection of NIH/3T3 cells); type: cell-based, Trypanosoma cruzi; settings: Trypanosoma cruzi, TULAHUEN, NIH3T3, 96 h, 4 days
Experimental: NIH/3T3 cells and parasites were harvested, washed once and resuspended in DMEM supplemented with 2% FBS and Pen-Strep-Glut. […] Different numbers of NIH/3T3 cells were seeded in 96-well plates. After 3 h, compounds were added at the indicated concentrations and mixed by pipetting. BZN tablets (Rochagan, Roche) dissolved in DMSO and 4 µM Amphotericin B solution (Sigma-Aldrich) were used as positive controls. Different numbers of T. cruzi parasites were added in a final volume of 200 µl/well. After 4 days, 50 µl of PBS containing 0.5% of the detergent NP40 and 100 µM Chlorophenol Red-β-D-galactoside (CPRG) (Fluka) were added. Plates were incubated at 37°C for 4 h and absorbance was read at 590 nm using a Tecan Spectra Mini plate reader.
To calculate the Z′ factor, we used the formula described by Zhang et al.: Z′ = 1−[(3σc++3σc−) / |μc+−μc−|] where σc+ = standard deviation (SD) of positive control, σc− = SD of negative control, μc+ = mean of positive control, μc− = mean of negative control. Subsequently, the best ratio was used for all growth inhibition assays (50.000 cells and parasites, multiplicity of infection (MOI) 1∶1).
To determine IC50 values, β-gal activity (Abs590) was plotted against compound concentration for each compound. The IC50 was determined as the concentration at which the activity (absorbance) was half that in the absence of compound. Mean IC50 values are the average of independent experiments performed in triplicate on three different days.

T. cruzi = settings: cited from earlier work
L. amazonensis = assay: Leishmania growth inhibition assay in bone marrow-derived macrophages (L. amazonensis); type: cell-based; settings: 3 days; for Reduction in parasite burden, L. amazonensis: 2 µM, added 2 h post-infection of macrophages; for IC50: Leishmania amazonensis, Macrophage, 72 h, macrophages, read-out: estimated IC50 against intracellular L. amazonensis
Experimental: (§1) Adherent bone marrow-derived macrophages were harvested in cold DMEM+0.5 mM EDTA and seeded into an 8-well Lab-Tek II chambered coverglass (Nalge Nunc International, Naperville, IL) at a concentration of 50,000 cells/chamber 24 h before being used for infections.
(§2) L. major and L. amazonensis parasites were opsonized for 30 min by incubation in DMEM containing 4% BALB/c serum and then allowed to invade macrophages in 200 µl DMEM supplemented with 10% FBS and Pen-Strep-Glut, at a MOI of 3 parasites per macrophage for 2 h at 33°C (5% CO2, 95% air humidity),[17]. Thereafter, non-phagocytosed parasites were washed off, and the cultures were further incubated in 300 µl of medium in the presence or the absence of drugs at the indicated concentration for 3 days for L. amazonensis and 5 days for L. major. Medium was changed and drugs were added again at the same concentration on day 2 post-infection. Intracellular parasites were assessed after staining with DAPI (3 µM) by fluorescence microscopy. The total number of amastigotes/500 macrophages was counted in each well. Kruskal-Wallis test was used to analyze the data, followed by a Dunn's post-comparison test.

NIH/3T3 cells = assay: Cytotoxicity assay (Alamar Blue) on NIH/3T3 cells; type: cell-based; settings: 4 days
Experimental: (§3) Cells (NIH/3T3 or HepG2) were washed and plated at a density of 50,000 cells/well of 96-well plates in 200 µl and allowed to adhere for 3 h. Twenty-four hour assays were done in DMEM without phenol red supplemented with 10% FBS and Pen-Strep-Glut, while 4-day assays were done in the same medium containing 2% FBS. Drugs were added and mixed. After 1 or 4 days, 20 µl of Alamar Blue (Biosource, Invitrogen) was added. Plates were incubated for 4 h (HepG2) or 6 h (NIH/3T3) at 37°C and fluorescence was read using a Labsystems Fluoroskan II plate reader (excitation: 544 nm, emission: 590 nm) .
(§4) To determine TC50 values, fluorescence was plotted against inhibitor concentration. TC50 was determined as the concentration at which cytotoxicity (fluorescence) was half that in the absence of inhibitor.

mammalian cells = assay: Cytotoxicity on mammalian cells (cell type not given); type: cell-based; settings: type of mammalian cells and duration not specified at the place
Experimental: as §3, §4

[2] = system: Free trypomastigotes (β-gal T. cruzi); assay: T. cruzi lysis assay; type: cell-based; settings: Trypanosoma cruzi; lysis assay, 100,000 parasites, 24 h
Experimental: Trypomastigotes were rinsed once and plated in 96-well plates at 100,000/well with the compounds in a final volume of 200 µl of DMEM without phenol red supplemented with 2% FBS, Pen-Strep-Glut and 100 µM CPRG. Plates were incubated for 24 h at 37°C and absorbance was read at 590 nm.

T. cruzi Y strain = assay: Development assay with immunofluorescence (Y strain); type: cell-based, Trypanosoma cruzi; settings: added after 2 h infection, 2 days
Experimental: (§5) Fifty thousand NIH/3T3 cells were seeded on sterile glass coverslips in 12-well plates and allowed to adhere overnight. Five million parasites were added (MOI 100∶1) and allowed to infect for 2 h in DMEM+2% FBS and Pen-Strep-Glut. Parasites were rinsed out three times with PBS. Infected cells were further incubated and fixed for 15 min with 4% paraformaldehyde at the times indicated.
(§6) Fixed cells on coverslips were rinsed with PBS, permeabilized for 15 min in PBS with 0.1% Triton X-100 (Sigma-Aldrich). After blocking for 20 min in PBS with 10% goat serum, 1% bovine serum albumin, 100 mM glycine and 0.05% sodium azide, cells were incubated for 1 h at room temperature with a polyclonal rabbit anti-T. cruzi (gift from Dr B. Burleigh, Harvard School of Public Health, Boston, MA) at 1∶2000 dilution. After rinsing, an Alexa Fluor® 488 goat anti-rabbit IgG secondary antibody (Molecular Probes, Invitrogen) was added for 1 h at a 1∶800 dilution. DNA was stained with DAPI and coverslips were mounted on Mowiol. To determine the number of parasites per infected cell, between 200 and 300 infected cells per coverslip were scored in triplicate samples using an inverted Olympus IX70 microscope with a 60× oil objective. Data are presented as mean±standard deviation. Images were taken with the same microscope.

HepG2 cells = assay: Cytotoxicity assay (Alamar Blue) on HepG2 cells; type: cell-based, human
Experimental: as §3, §4

[3] = system: intracellularly growing T. cruzi amastigotes; assay: Development assay with immunofluorescence (intracellular amastigotes, Tulahuen β-gal strain); type: cell-based, Trypanosoma cruzi; settings: for Morphology of intracellularly growing T. cruzi / Number of parasites per infected cell (intracellular replication): added after 2 h infection; for Morphology of intracellularly growing T. cruzi: fixed after 2 or 3 days, PCH1 100 nM, NT1 400 nM, CX1 90 nM; for Number of parasites per infected cell (intracellular replication): 2 days
Experimental: as §5, §6

L. major = assay: Leishmania growth inhibition assay in bone marrow-derived macrophages (L. major); type: cell-based; settings: 5 days; for Reduction in parasite burden, L. major: 2 µM, added 2 h post-infection of macrophages; for IC50: Leishmania major, Macrophage, 120 h, macrophages, read-out: estimated IC50 against intracellular L. major
Experimental: as §1, §2

[4] = β-gal T. cruzi Tulahuen, 50.000 NIH/3T3 cells and parasites (MOI 1:1), read-out: IC50 Intracellular growth

SMILES	IC50 (Leishmania)	IC50 ([1]; β-gal T. cruzi Tulahuen in NIH/3T3 cells, read-out: IC50 T. cruzi growth inhibition)	IC50 (T. cruzi; read-out: IC50 against T. cruzi (reported))	Reduction in parasite burden, L. amazonensis (L. amazonensis)	IC50 (L. amazonensis)	TC50 NIH/3T3 cells at 4 days (NIH/3T3 cells)	Toxicity (TC50) versus anti-trypanosomal activity (IC50) (mammalian cells)	IC50 [2]	Effect on intracellular T. cruzi Y strain (T. cruzi Y strain)	IC50 [1, 4]	TC50 HepG2 cells at 24 h (HepG2 cells)	TC50 HepG2 cells at 4 days (HepG2 cells)	Phenotype of intracellular T. cruzi, compounds added 2 days after infection [3]	Morphology of intracellularly growing T. cruzi [3]	Reduction in parasite burden, L. major (L. major)	IC50 (L. major)	IC50 (T. cruzi; read-out: IC50 against T. cruzi in vitro)	Number of parasites per infected cell (intracellular replication) [3]
C[C@@H]1[C@H](O)[C@@H](C)/C=C/C=C/C=C/C=C/C=C/C=C/C=C/[C@H](O[C@@H]2O[C@H](C)[C@@H](O)[C@H](N)[C@@H]2O)C[C@@H]2O[C@](O)(C[C@@H](O)C[C@@H](O)[C@H](O)CC[C@@H](O)C[C@@H](O)CC(=O)O[C@H]1C)C[C@H](O)[C@H]2C(=O)O [Amphotericin B]	100 nM																	
O=C(Cn1ccnc1[N+](=O)[O-])NCc1ccccc1 [BZN, benznidazole, reference compound]		1150 nM	1500 nM															
Cc1cc(OCCCCCCn2ccnc2)cc(C)c1Cl [CX1, 1-[6-(4-chloro-3,5-dimethylphenoxy)hexyl]-1H-imidazole]				70%	~500 nM	16000 ± 6000 nM	over 500 fold	13500 ± 1000 nM	induced parasite lysis with morphological changes; also recorded: dose effect on the Y strain of T. cruzi was similar to the β-gal-expressing Tulahuen strain	23 ± 7 nM	57000 ± 8000 nM	12000 ± 4000 nM	induced parasite lysis and host cell apoptosis in concentrations as low as 90 nM	displayed pycnotic nuclei (star) and debris of parasites protein and DNA throughout the cytoplasm	~70%	~500 nM		
OC(Cn1cncn1)(Cn1cncn1)c1ccc(F)cc1F [Fluconazole, fluconazole]																	8000 nM	
O=C(Cn1cnc([N+](=O)[O-])n1)Nc1cc(Oc2cccc(C(F)(F)F)c2)cc([N+](=O)[O-])c1 [NT1, 2-(3-nitro-1H-1,2,4-triazol-1-yl)-N-{3-nitro-5-[3-(trifluoromethyl)phenoxy]phenyl}acetamide]				50%	~500 nM	14000 ± 6000 nM		6800 ± 900 nM	inhibit intracellular replication of T. cruzi Y strain; also recorded: displayed activity on the Y strain, but at higher concentrations	190 ± 40 nM	30000 ± 10000 nM	7600 ± 300 nM	had a trypanostatic effect	inhibited replication of parasites without altering their overall morphology	~80%	~500 nM		induced a growth arrest of intracellular T. cruzi
O=C(NN=Cc1ccc(-c2cccc(Cl)c2Cl)o1)c1ccccn1 [PCH1, N′-{[5-(2,3-dichlorophenyl)-2-furyl]methylene}-2-pyridinecarbohydrazide]				70%	~100 nM	>300000 nM		240000 ± 60000 nM	inhibit intracellular replication of T. cruzi Y strain	54 ± 10 nM	>300000 nM	66000 ± 7000 nM	induced major defects in cell division at the IC100 and parasite lysis at higher doses	larger amastigotes containing multiple disorganized nuclei and kinetoplasts were observed	about 50%	~2000 nM		induced a growth arrest of intracellular T. cruzi
